Experimental data from a melting point compilation (Tetko et al.; mined from patent text by program, amines drawn as free bases though some values may be those of a salt).

Row | Structure (SMILES) | melting point [°C]
1 | CCC(=O)c1sc(SC)c2c1CCc1cnn(C)c1-2 | 119 to 120
2 | CCSc1cc(C)nc(SCC)c1NC(=O)CSc1nc2cccc(C(=O)OC)c2o1 | 168 to 169
3 | O=S1CCN(c2nc(N3CCNCC3)cc3ccc(Cl)cc23)CC1 | 209 to 211
4 | O=P(Oc1ccc(-c2ccc(OP(=O)(c3ccccc3)c3ccccc3)cc2)cc1)(c1ccccc1)c1ccccc1 | 233 to 234
5 | COc1ccc(-c2ccc(C)nc2-c2ccc(O)cc2)cc1 | 190
6 | COc1ccc(C(=O)NCC(O)CC(=O)O)cc1OCc1ccccc1 (configuration not stated) | 158 to 160
7 | COCC(=O)Nc1nc(N)nc(NC2CC2)n1 | 152 to 157
8 | CCCC(=O)N[C@@H]1CCc2cccc(N3CCN(C)CC3)c2C1 | 131 to 132
9 | N#CSc1nc(Nc2ccc(Cl)cc2)ncc1[N+](=O)[O-] | 240 to 242
10 | CCOC(=O)c1cc(O)c2ccc3c(c2c1-c1cc(OC)c(OC)c(OC)c1)OCO3 | 151 to 152
11 | O=C(O)CCCC(CCCNS(=O)(=O)c1ccc(Cl)cc1)CCc1cccnc1 (configuration not stated) | 83 to 85
12 | CN1CN(C)C(=S)N(c2ccccc2)C1 | 85 to 87
13 | CC(=O)NC(C(=O)NCc1ccccc1)c1cn(S(=O)(=O)N(C)C)cn1 (configuration not stated) | 145 to 147
14 | CN(C)CCCOc1cccc(CC(=O)c2cccc(OCCCN(C)C)c2)c1 | 102 to 105
15 | CC(=O)SCCC(=O)NC1(C(=O)O)CCCC1 | 127 to 128
16 | CC(C)c1ccc(C(=O)C2CCNCC2)cc1 | 55 to 57
17 | COC(=O)c1cnn2c(C(F)(F)F)cc(O)nc12 | 149 to 150
18 | Cc1cc(C(=O)Nc2c(NC(=O)CCl)ccc3c2C(=O)c2ccccc2C3=O)c(C)o1 | 207 to 208
19 | O=C(Nc1ccccc1)O[C@@H]1CN=C(c2ccc(OC(F)(F)F)cc2)O[C@H]1c1ccccc1 (racemic) | 128
20 | COC(=O)c1cccn1CC(I)=C(I)I | 88 to 90
21 | Nn1cc(C(=O)O)c(=O)c2cc3c(cc21)OCO3 | 309 to 313
22 | O=C1CC(c2ccccc2)CC(=O)C1C(=O)c1ccc(Cl)cc1[N+](=O)[O-] (configuration not stated) | 144 to 145
23 | COc1cc2oc(=O)c(CCOS(C)(=O)=O)c(C)c2cc1OC | 188 to 191

Row | Structure (SMILES) | melting point [°C]
24 | CCOC(=O)c1c(C2CC2)nn(CC)c1Cc1ccc(-c2ccccc2S(N)(=O)=O)cc1 | 54 to 58
25 | CC(=O)c1c(C)[nH]c(C(C)CCC(C)c2[nH]c(C)c(C(C)=O)c2C)c1C (configuration not stated) | 263 to 268
26 | CC(CO)CCCC(C)C1CCC2C3CC=C4C(C)(C)C(O)CCC4(C)C3CCC12C (configuration not stated) | 174 to 175
27 | CC(=O)NC[C@H]1CN(c2ccc(N3CCN(C(=O)CCC(=O)c4ccc(Br)cc4)CC3)c(F)c2)C(=O)O1 | 197 to 198
28 | COC(=O)c1ccc(NC(=O)c2sc3ccc(OC)cc3c2SC(C)C)cc1 | 158
29 | CC(=O)N(C)c1cc(Cl)ccc1C(=O)c1cnoc1C1CC1 | 106 to 108
30 | N#Cc1[nH]n(C2CCCC2)c2nc(-c3ccncc3)nc(=O)c1-2 | > 300
31 | O=C(Nc1ccccn1)c1c(O)ccc2cc(-c3cccc(O)c3)ccc12 | 140
32 | Cc1ccc(-n2c(N)nc3ccccc32)cc1-c1ccco1 | 155 to 157
33 | CCCS(=O)(=O)NCCCCn1c(=O)c2c(C)nc3cccc1n32 | 150 to 151
34 | COC(=O)OCC(COC(=O)OC)OCn1cnc2c(=O)[nH]c(N)nc21 | 204 to 206
35 | C=CCc1c(O)ccc2c1C(CCNC(=O)CC)CN2C=O (configuration not stated) | 173 to 175
36 | O=C(CCC1CCCC1)Nc1ccc(N2CCC(NC[C@H](O)COc3cccc4[nH]c(=O)[nH]c34)CC2)cc1 | 140 to 144
37 | Cc1ccc(=O)n(-c2cc(F)c(C#N)cc2F)n1 | 159
38 | COC(=O)c1ccc(-c2nc(-c3ccc(C(C)(C)C)cc3)cs2)cc1 | 154 to 155
39 | CCCCn1cncc1C(O)(c1ccc(Cl)cc1)c1ccc2c(c1)c(-c1cccc(Cl)c1)cc(=O)n2C (configuration not stated) | 175
40 | CCCC(Sc1cc(C(C)(C)C)c(O)c(C(C)(C)C)c1)C(=O)Nc1c(C)cccc1C (configuration not stated) | 137 to 140
41 | CC(C)(CF)C(=O)Cn1cncn1 | 59
42 | CC(=O)OC1(C(C)=O)C(C)CC2C3CC(C)C4=CC(=O)C=CC4(C)C3C(O)CC21C (configuration not stated) | 270 to 272
43 | OCC1OC(n2cnc3c(Nc4ccccc4)cc(Cl)nc32)C(O)C1O (configuration not stated) | 157 to 160
44 | CCn1ncc(N=O)c1N | 135 to 136
45 | NC(=O)N1C(=O)C(C(=O)c2cc(Cl)cs2)c2ncc(Cl)cc21 (configuration not stated) | > 250
46 | COc1cc(N2CCN([C@H](C)c3ccc(OC)c(OC)c3)CC2)ccc1Cl | 172 to 176

Row | Structure (SMILES) | melting point [°C]
47 | O=C(O)c1c(Cc2cc3c(cc2Cl)OCO3)c(-c2ccccn2)nn1CC1CCC(C(=O)O)CC1 (configuration not stated) | 261
48 | COc1c(Cl)cc2c(N)nc(N3CCN(C(=O)C4CCCO4)CC3)nc2c1OC (configuration not stated) | 192 to 193
49 | Cc1ccc(NC(=O)c2ccc(CN3C(=O)C4(COc5cc6c(cc54)CCO6)c4ccccc43)cc2)c(C)c1 (configuration not stated) | 249 to 251
50 | COc1cc(OC)nc(Oc2cccc(Oc3nc(OC)cc(OC)n3)c2CO)n1 | 122
51 | O=[N+]([O-])c1cccc(OCc2csc(-c3ccccc3)n2)c1 | 112 to 114
52 | CC(CC(=O)NO)c1cccc(Nc2ccccc2-c2n[nH]c(=S)o2)c1Cl (configuration not stated) | 205 to 207
53 | O=C(O)c1cn(C2CC2)c(-c2ccc3c(c2)OCO3)cc1=O | 211 to 212
54 | Cc1c(-c2ccc(O)cc2)n(Cc2ccc(/C=C/C(=O)N(C)C)cc2)c2ccc(O)cc12 | 278 to 280
55 | Cc1cc(C)n(-c2nc(Nc3ccc(Cl)cc3)c3ccccc3n2)n1 | 209 to 211
56 | COC(=O)c1snc(-c2ccc(C#N)cc2)c1C(=O)OC | 134 to 135
57 | Cc1cc(-c2cc(C(F)(F)F)nn2-c2ccc(S(C)(=O)=O)cc2)ccc1-c1cscn1 | 140 to 142
58 | CCSC(=O)OCOC(=O)COc1nc(Cl)c(Cl)cc1Cl | 70 to 71
59 | CCCc1c(OCCCOc2ccc(C(=O)CCl)c(OC)c2CCC)ccc2c1OC(C(=O)OC)CC2 (configuration not stated) | 47 to 49
60 | O=C(C=Cc1ccc(OCc2ccccc2)c([N+](=O)[O-])c1)Nc1ccc(Cl)cc1Cl | 152 to 153
61 | Cc1nnc2n1-c1ccc(Br)cc1C(c1ccccn1)=NC2 | 248 to 250
62 | N#Cc1ccc(-c2ccc(I)cc2)cc1 | 162 to 168
63 | Nc1nc2c(s1)CC(N1CCN(c3ccc(Br)cn3)CC1)CC2 (configuration not stated) | 246 to 248
64 | CCOC(=O)c1cnc(CC)nc1NCc1ccc(-c2ccccc2-c2nnn[nH]2)cc1 | 114 to 116
65 | COc1cc(Cc2ccc3nc(N)nc(N)c3c2)cc(OC)c1OC | 219 to 221
66 | CCC12CCC3C4CCC(OC)=CC4=CCC3C1C(OC(C)=O)CC2=O (configuration not stated) | 190
67 | Cc1sc(-c2ccc(OC(F)(F)F)cc2)cc1-c1nc(-c2c(F)cccc2Cl)nn1C | 153 to 155

Second part, the compound after the results:

Row | melting point [°C] | Structure (SMILES)
68 | 79 to 80 | O=CCCc1c[nH]c2ccc(F)cc12
69 | 110 to 111 | CN(C(=O)Nc1nc(OCC(F)(F)F)cc(OCC(F)(F)F)n1)c1ccc(Br)cc1
70 | 131 to 132 | CC(CCc1ccc(F)cc1)(Cn1ccnc1)Sc1cccc(Cl)c1Cl (configuration not stated)
71 | 98 to 100 | CCCCCc1ccc(C(=O)CCC(=O)O)cc1
72 | 175 to 176 | O=c1ccc(-c2ccc(Cl)cc2)n[nH]1
73 | 191 to 192 | CC(C)Oc1nc(N)nc2ccc(-c3ccc(F)cc3)nc12
74 | 153 to 156 | CN(C)Cc1[nH]c2ccccc2c1Cn1ccnc1
75 | 154 to 155 | O=C(c1ccc(F)cc1C(F)(F)F)N1Cc2cccn2Cc2ccccc21
76 | 195 to 196 | Cc1nc(Sc2ncccc2C(F)(F)F)sc1CC(=O)O
77 | 190 to 196 | O=C(CN1CCC(Oc2ccccc2)CC1)Nc1ccc2[nH]c(=O)oc2c1
78 | 128 to 129 | COc1ccc(C(O)CNCCc2ccc(OC)c(OC)c2C)cc1 (configuration not stated)
79 | 76.5 to 78 | CNCC1CN(c2ccc3ccccc3c2)C(=O)O1 (configuration not stated)
80 | 199 to 200 | O=C1NCC=NN1c1cc(Cl)c(Cc2ccc(Cl)cc2)c(Cl)c1
81 | 217 to 218 | Cc1nc2c(OCc3c(Cl)ccc(N(C)C(=O)CO)c3Cl)cccn2c1Br
82 | 208 to 210 | O=C1CC2(CCc3cc4ccccc4n3C2)C(=O)N1 (configuration not stated)
83 | 90 to 94 | CCOC(=O)c1ccc2c(c1)c(C#Cc1ccccc1)nn2CCC#N
84 | 158 to 159 | O=C(O)CN1C(=O)C(c2ccccc2)SC1=S (configuration not stated)
85 | 135 to 136 | O=C(O)Cc1ccc(CCNS(=O)(=O)c2ccc3ccccc3c2)cc1

Row | melting point [°C] | Structure (SMILES)
86 | 203 to 209 | Cc1cc2c(cc1Cl)C(c1ccccc1Cl)C(=O)N2 (configuration not stated)
87 | 77 to 78 | CSc1nnc(SCc2ccc(Cl)cc2)s1
88 | 83 to 85 | CS(=O)(=O)c1ccc(-c2cnn(-c3ccc(F)cc3)c(=O)c2Oc2ccc(F)cc2)cc1
89 | 50 to 51 | CCOC(=O)CCc1cn(-c2ccc(C(F)(F)F)cn2)nc1C
90 | 118 to 120 | O=C1NCCN=C1c1ccc(F)cc1
91 | 121 to 123 | COC(=O)c1nc(C)c(-c2ccncc2)s1
92 | 84 to 86 | N#Cc1cccc(Oc2ncccc2OCCCc2ccncc2O)c1
93 | 113 to 114 | COc1ccccc1N1CCN(CC(O)COc2ccccc2CN)CC1 (configuration not stated)
94 | 112 to 113 | Cc1cc2c([C@@H]3C[C@H]3CNC(=O)c3ccccc3)cccn2n1 (relative stereo)
95 | 159 to 160 | FC(F)(F)c1cccc(CSc2nnc(-c3ccc4[nH]ncc4c3)o2)c1
96 | 38 to 40 | C=CCc1ccc2oc(CC)c(C)c2c1O
97 | 200 | C=CC(=O)Nc1ccc2ccc(Cl)nc2n1
98 | 75 to 77 | CC(C)(C)OC(=O)NCCCc1ccccc1O
99 | 125 to 126 | C=CCn1c(C)c(C)c2cnnc(OCc3ccc(F)cc3F)c21
100 | 125 to 129 | [N-]=[N+]=NCc1ccc2c(NC(=O)c3ccccc3)nccc2c1
101 | 90 to 91 | C[Si](C)(CCSCCNC(=O)n1cc(F)c(=O)[nH]c1=O)c1ccccc1
102 | 114 to 115 | COC(=O)C=Cc1ccc(OCCc2nc(-c3ccccc3)oc2C)cc1
